Where two headings read alike, the source gives them in different places.
How the values were obtained:
[1] = tested on: bladder cancer cell lines; assay: Cell based assay, cell viability (CellTiter-Glo), bladder cancer cell lines; conditions: 72 hours treatment, 0 to 2 μM, CellTiter-Glo
How it was run: (§1)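 Following a 24 h pre-culture in plates, cells receive test compound (final 0 to 2 μM) for 72 hours. Luminescent quantitation of cellular ATP gives viability.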

[2] = tested on: pancreatic cancer cell lines (e.g. MIA PaCa-2); assay: Cell based assay, cell viability (CellTiter-Glo), pancreatic cancer cell lines; conditions: Homo sapiens
How it was run: as §1

[3] = tested on: lung cancer cell lines (e.g. NCI-H23, NCI-H1229); assay: Cell based assay, cell viability (CellTiter-Glo), lung cancer cell lines; conditions: Homo sapiens, 72 hours treatment, CellTiter-Glo
How it was run: as §1

[4] = 5637 cells, read-out: IC50, bladder cancer cell line 5637
[5] = Homo sapiens, T-24, T24 cells, read-out: IC50, bladder cancer cell line T24
[6] = Homo sapiens, J82 cells, read-out: IC50, bladder cancer cell line J82
[7] = pancreatic cancer cell line AsPC-1, 72 hours, read-out: IC50, AsPC-1
[8] = pancreatic cancer cell line BxPC-3, 72 hours, read-out: IC50, BxPC-3
[9] = pancreatic cancer cell line CFPAC-1, 72 hours, read-out: IC50, CFPAC-1
[10] = pancreatic cancer cell line Capan-1, 72 hours, read-out: IC50, Capan-1
[11] = pancreatic cancer cell line Capan-2, 72 hours, read-out: IC50, Capan-2
[12] = pancreatic cancer cell line MIA PaCa-2, 72 hours, read-out: IC50, MIA PaCa-2
[13] = pancreatic cancer cell line PANC-1, 72 hours, read-out: IC50, PANC-1
[14] = A549 cells, read-out: IC50, lung cancer cell line A549
[15] = DMS 114 cells, read-out: IC50, lung cancer cell line DMS 114
[16] = NCI-H23 cells, read-out: IC50, lung cancer cell line NCI-H23
[17] = NCI-H460 cells, read-out: IC50, lung cancer cell line NCI-H460
[18] = NCI-H522 cells, read-out: IC50, lung cancer cell line NCI-H522
[19] = NCI-H1299 cells, read-out: IC50, lung cancer cell line NCI-H1299
[20] = NCI-H1437 cells, read-out: IC50, lung cancer cell line NCI-H1437

SMILES	IC50 [1, 4]	IC50 [1, 5]	IC50 [1, 6]	IC50 [2, 7]	IC50 [2, 8]	IC50 [2, 9]	IC50 [2, 10]	IC50 [2, 11]	IC50 [2, 12]	IC50 [2, 13]	IC50 [3, 14]	IC50 [3, 15]	IC50 [3, 16]	IC50 [3, 17]	IC50 [3, 18]	IC50 [3, 19]	IC50 [3, 20]	IC50 ([1]; Homo sapiens, KU-19-19 cells, read-out: IC50, bladder cancer cell line KU-19-19)	IC50 ([3]; MRC-5 cells, read-out: IC50)
CC(=O)c1c([S+]([O-])Cc2ccc(C#N)cc2)[nH]c2c(Br)ccc(Cl)c2c1=O (stereo not drawn) [Compound 73, 4-(((3-acetyl-8-bromo-5-chloro-4-oxo-1,4-dihydroquinolin-2-yl)sulfinyl)methyl)benzonitrile]	> 2000 nM		> 2000 nM	> 2000 nM	> 2000 nM	> 10000 nM	> 2000 nM	> 2000 nM	1650 nM	> 2000 nM	> 2000 nM	> 2000 nM	1520 nM	> 2000 nM	> 2000 nM	> 2000 nM	> 10000 nM	> 2000 nM	> 2000 nM
CC(=O)c1c([S+]([O-])Cc2c(F)cccc2Cl)[nH]c2c(Br)ccc(Cl)c2c1=O (stereo not drawn) [Compound 74, 3-acetyl-8-bromo-5-chloro-2-((2-chloro-6-fluorobenzyl)sulfinyl)quinolin-4(1H)-one]	1600 nM	1070 nM	> 2000 nM	> 2000 nM	> 2000 nM	> 10000 nM	> 2000 nM	> 2000 nM	1180 nM	> 2000 nM	> 2000 nM	> 2000 nM	1080 nM	> 2000 nM	> 2000 nM	1420 nM	> 10000 nM		> 2000 nM
CC(=O)c1c([S+]([O-])Cc2c(F)c(F)c(F)c(F)c2F)[nH]c2c(Br)ccc(Cl)c2c1=O (stereo not drawn) [Compound 78, 3-acetyl-8-bromo-5-chloro-2-(((perfluorophenyl)methyl)sulfinyl)quinolin-4(1H)-one]	> 2000 nM	1800 nM	> 2000 nM	> 2000 nM	> 2000 nM	> 10000 nM	> 2000 nM	> 2000 nM	1400 nM	> 2000 nM	> 2000 nM	> 2000 nM	1340 nM	> 2000 nM	> 2000 nM	1810 nM	> 10000 nM		1500 nM
CC(=O)c1c([S+]([O-])Cc2ccc(I)cc2)[nH]c2c(Cl)ccc(Cl)c2c1=O (stereo not drawn) [Compound 83, 3-acetyl-5,8-dichloro-2-((4-iodobenzyl)sulfinyl)quinolin-4(1H)-one]	1370 nM	1500 nM	> 2000 nM	> 2000 nM	> 2000 nM	> 10000 nM	> 2000 nM	> 2000 nM	1440 nM	> 2000 nM	> 2000 nM	> 2000 nM	1250 nM	1540 nM	> 2000 nM	1450 nM	> 10000 nM		1750 nM
Cc1cc(C[S+]([O-])c2[nH]c3c(Br)ccc(Cl)c3c(=O)c2C(=O)C(C)C)no1 (stereo not drawn) [Compound 95, 8-bromo-5-chloro-3-isobutyryl-2-(((5-methylisoxazol-3-yl)methyl)sulfinyl)quinolin-4(1H)-one]	1230 nM	980 nM	1470 nM	1060 nM	> 2000 nM	> 10000 nM	1250 nM	> 2000 nM	590 nM	> 2000 nM	940 nM	> 2000 nM	720 nM	1400 nM	1010 nM	1060 nM	< 2000 nM		970 nM

Further lines, with some results ahead:

IC50 [1, 4]	IC50 [1, 5]	IC50 [1, 6]	IC50 [2, 7]	IC50 [2, 8]	IC50 [2, 9]	IC50 [2, 10]	IC50 [2, 11]	IC50 [2, 12]	IC50 [2, 13]	IC50 [3, 14]	IC50 [3, 15]	IC50 [3, 16]	IC50 [3, 17]	IC50 [3, 18]	IC50 [3, 19]	IC50 [3, 20]	IC50 ([1]; Homo sapiens, KU-19-19 cells, read-out: IC50, bladder cancer cell line KU-19-19)	SMILES	IC50 ([3]; MRC-5 cells, read-out: IC50)
1640 nM	1250 nM	1630 nM	2010 nM	> 2000 nM	> 10000 nM	> 2000 nM	> 2000 nM	1000 nM	> 2000 nM	1790 nM	1940 nM	710 nM	1540 nM	> 2000 nM	1210 nM	> 10000 nM		CC(=O)c1c([S+]([O-])Cc2ccc(C(F)(F)F)o2)[nH]c2c(Br)ccc(Cl)c2c1=O (stereo not drawn) [Compound 72, 3-acetyl-8-bromo-5-chloro-2-(((5-(trifluoromethyl)furan-2-yl)methyl)sulfinyl)quinolin-4(1H)-one]	720 nM
1570 nM	1330 nM	1480 nM	> 2000 nM	> 2000 nM	> 10000 nM	> 2000 nM	> 2000 nM	1320 nM	> 2000 nM	1700 nM	> 2000 nM	1190 nM	1730 nM	> 2000 nM	1060 nM	> 10000 nM		COc1cc(S(F)(F)(F)(F)F)ccc1C[S+]([O-])c1[nH]c2c(Br)ccc(Cl)c2c(=O)c1C(C)=O (stereo not drawn) [Compound 75, 3-acetyl-8-bromo-5-chloro-2-((2-methoxy-4-(pentafluoro--sulfanyl)benzyl)sulfinyl)quinolin-4(1H)-one]	1090 nM
> 2000 nM	1790 nM	> 2000 nM	> 2000 nM	> 2000 nM	> 10000 nM	> 2000 nM	> 2000 nM	1550 nM	> 2000 nM	> 2000 nM	> 2000 nM	1220 nM	> 2000 nM	> 2000 nM	1670 nM	> 10000 nM		CC(=O)c1c([S+]([O-])Cc2cc(F)cc(S(F)(F)(F)(F)F)c2)[nH]c2c(Br)ccc(Cl)c2c1=O (stereo not drawn) [Compound 76, 3-acetyl-8-bromo-5-chloro-2-((3-fluoro-5-(pentafluoro--sulfanyl)benzyl)sulfinyl)quinolin-4(1H)-one]	1570 nM
> 2000 nM	1030 nM	> 2000 nM	1800 nM	> 2000 nM	> 10000 nM	1500 nM	> 2000 nM	920 nM	> 2000 nM	> 2000 nM	> 2000 nM	860 nM	1480 nM	1350 nM	1050 nM	> 10000 nM		CC(=O)c1c([S+]([O-])Cc2cccnc2)[nH]c2c(Br)ccc(Cl)c2c1=O (stereo not drawn) [Compound 84, 3-acetyl-8-bromo-5-chloro-2-((pyridin-3-ylmethyl)sulfinyl)quinolin-4(1H)-one]	1290 nM
1360 nM	1020 nM	1610 nM	1280 nM	> 2000 nM	> 10000 nM	1260 nM	> 2000 nM	640 nM	> 2000 nM	1190 nM	> 2000 nM	710 nM	1490 nM	1090 nM	1230 nM	< 2000 nM		Cc1cc(C[S+]([O-])c2[nH]c3c(Cl)ccc(Cl)c3c(=O)c2C(=O)C(C)C)no1 (stereo not drawn) [Compound 86, 5,8-dichloro-3-isobutyryl-2-(((5-methylisoxazol-3-yl)methyl)sulfinyl)quinolin-4(1H)-one]	1130 nM
> 2000 nM	1750 nM	> 2000 nM	> 2000 nM	> 2000 nM	> 10000 nM	> 2000 nM	> 2000 nM	1410 nM	> 2000 nM	> 2000 nM	> 2000 nM	1470 nM	> 2000 nM	> 2000 nM	> 2000 nM	> 10000 nM		COC(=O)c1ccc(C[S+]([O-])c2[nH]c3c(Cl)ccc(Cl)c3c(=O)c2C(C)=O)o1 (stereo not drawn) [Compound 89, methyl 5-(((3-acetyl-5,8-dichloro-4-oxo-1,4-dihydroquinolin-2-yl)sulfinyl)methyl)furan-2-carboxylate]	> 2000 nM

Source: US11464770B2, “Anticancer pharmaceutical composition” (NATIONAL CANCER CENTER, priority 2016, dated 2022)
